# In patent US8192962B2, “Processes for detecting toxic substances” (Daikin Industries, Ltd., priority 2001, dated 2012):
# Test system: Mitochondria-located protein genes
# Assay: DNA chip mRNA expression in yeast, mitochondria-located protein genes (Table 2)
# Assay type: cell-based, Saccharomyces cerevisiae S288C
# Settings: cells incubated two hours with the chemical substance
# Protocol: Yeast (Saccharomyces cerevisiae S288C (α SUC2mal mel gap2 CUP1)) were incubated at 25° C. on YPD medium (yeast extract 1%, polypepton 2%, glucose 2%). One of toxic chemical substances was added to the cells at logarithmic growth phase, and the cells were further incubated for two hours. Cells were cultured without any chemical substance in the same condition, and were used as control. Concentrations of the chemical substances were defined to inhibit the growth of the yeast but not lead to death.
# After completion of the incubation, the culture was centrifuged to collect the cells. To the cells, sodium acetate buffer (50 mM sodium acetate, 10 mM EDTA, 1% SDS) was added, and the mixture was shaken at 65° C. for five minutes, followed by returning to room temperature, and obtaining the supernatant, of which the procedures were repeated two times. To the supernatant, ½ amount of a solution of phenol/chloroform was added, and the mixture was centrifuged to give a supernatant, which was added with an equal amount of chloroform, and the mixture was centrifuged to give a supernatant. To the supernatant, an equal amount of isopropanol containing 0.3 M sodium acetate was added, and the mixture was allowed to stand at room temperature for 30 minutes, after which the mixture was centrifuged to give a sediment of the whole RNAs. Seventy % ethanol was added to the sediment, and the mixture was again centrifuged to give a sediment, which was then dried and dissolved in water. mRNA was isolated from the whole RNAs as followings. In view of the fact that a poly A chain is attached to the 3′ terminus of mRNA, a polynucleotide having a poly T structure which was immobilized on the surface of latex beads was used to trap the mRNA, and then the mRNA was washed and eluted with spine column (Oligotex-dT30<Super>mRNA Purification Kit, Takara). Reverse transcription of the mRNA was conducted with a reverse transcriptase (Super Script II Reverse Transcriptase; catalogue No. 18064-014, GibcoBRL) using fluorescence-labeled nucleotides to give cDNAs that were introduced with Cy3-dUTP or Cy5-dUTP during the reverse transcription.
# The labeled cDNAs were dissolved in TE buffer (10mM Tris-HCl/1 mM EDTA, pH8.0), and the solution was dropped on the DNA chip containing the whole genes of yeast (DNA Chip Research Inc. Japan) so that the cDNAs were hybridized on the DNA chip at 65° C. for over 12 hours. The fluoresces intensity of the DNA chip was read with a scanner, and the ratio relative to the fluorescence intensity resulting from the absence of chemical substance was estimated as the following, which is shown in Tables 1 to 9: […]
compound,measurement,setting,value
"[Cl][Cd][Cl] [(2), CdCl2]",The level of expressed mRNA in the presence of chemical substance/The level of expressed mRNA in the absence of chemical substance,yeast gene YAL039C,2.2
same,The level of expressed mRNA in the presence of chemical substance/The level of expressed mRNA in the absence of chemical substance,yeast gene YBL022C,0.8
same,The level of expressed mRNA in the presence of chemical substance/The level of expressed mRNA in the absence of chemical substance,yeast gene YBL030C,0.9
same,The level of expressed mRNA in the presence of chemical substance/The level of expressed mRNA in the absence of chemical substance,yeast gene YBL038W,0.9
same,The level of expressed mRNA in the presence of chemical substance/The level of expressed mRNA in the absence of chemical substance,yeast gene YBL099W,0.9
same,The level of expressed mRNA in the presence of chemical substance/The level of expressed mRNA in the absence of chemical substance,yeast gene YBR003W,0.8
same,The level of expressed mRNA in the presence of chemical substance/The level of expressed mRNA in the absence of chemical substance,yeast gene YBR044C,1.4
same,The level of expressed mRNA in the presence of chemical substance/The level of expressed mRNA in the absence of chemical substance,yeast gene YBR091C,1.0
same,The level of expressed mRNA in the presence of chemical substance/The level of expressed mRNA in the absence of chemical substance,yeast gene YBR122C,0.9
same,The level of expressed mRNA in the presence of chemical substance/The level of expressed mRNA in the absence of chemical substance,yeast gene YBR185C,1.0
same,The level of expressed mRNA in the presence of chemical substance/The level of expressed mRNA in the absence of chemical substance,yeast gene YBR221C,0.7
same,The level of expressed mRNA in the presence of chemical substance/The level of expressed mRNA in the absence of chemical substance,yeast gene YBR251W,0.9
same,The level of expressed mRNA in the presence of chemical substance/The level of expressed mRNA in the absence of chemical substance,yeast gene YBR282W,1.0
same,The level of expressed mRNA in the presence of chemical substance/The level of expressed mRNA in the absence of chemical substance,yeast gene YCL057W,1.5
same,The level of expressed mRNA in the presence of chemical substance/The level of expressed mRNA in the absence of chemical substance,yeast gene YCR046C,1.2
same,The level of expressed mRNA in the presence of chemical substance/The level of expressed mRNA in the absence of chemical substance,yeast gene YCR083W,2.8
same,The level of expressed mRNA in the presence of chemical substance/The level of expressed mRNA in the absence of chemical substance,yeast gene YDL067C,1.0
same,The level of expressed mRNA in the presence of chemical substance/The level of expressed mRNA in the absence of chemical substance,yeast gene YDL181W,1.8
same,The level of expressed mRNA in the presence of chemical substance/The level of expressed mRNA in the absence of chemical substance,yeast gene YDL198C,1.0
same,The level of expressed mRNA in the presence of chemical substance/The level of expressed mRNA in the absence of chemical substance,yeast gene YDR079W,1.1
same,The level of expressed mRNA in the presence of chemical substance/The level of expressed mRNA in the absence of chemical substance,yeast gene YDR178W,2.0
same,The level of expressed mRNA in the presence of chemical substance/The level of expressed mRNA in the absence of chemical substance,yeast gene YDR231C,1.6
same,The level of expressed mRNA in the presence of chemical substance/The level of expressed mRNA in the absence of chemical substance,yeast gene YDR258C,2.3
same,The level of expressed mRNA in the presence of chemical substance/The level of expressed mRNA in the absence of chemical substance,yeast gene YDR298C,1.2
same,The level of expressed mRNA in the presence of chemical substance/The level of expressed mRNA in the absence of chemical substance,yeast gene YDR347W,0.8
same,The level of expressed mRNA in the presence of chemical substance/The level of expressed mRNA in the absence of chemical substance,yeast gene YDR377W,1.1
same,The level of expressed mRNA in the presence of chemical substance/The level of expressed mRNA in the absence of chemical substance,yeast gene YDR529C,1.0
same,The level of expressed mRNA in the presence of chemical substance/The level of expressed mRNA in the absence of chemical substance,yeast gene YEL024W,0.9
same,The level of expressed mRNA in the presence of chemical substance/The level of expressed mRNA in the absence of chemical substance,yeast gene YEL039C,0.7
same,The level of expressed mRNA in the presence of chemical substance/The level of expressed mRNA in the absence of chemical substance,yeast gene YER178W,0.9
same,The level of expressed mRNA in the presence of chemical substance/The level of expressed mRNA in the absence of chemical substance,yeast gene YFL016C,1.0
same,The level of expressed mRNA in the presence of chemical substance/The level of expressed mRNA in the absence of chemical substance,yeast gene YGL018C,1.0
same,The level of expressed mRNA in the presence of chemical substance/The level of expressed mRNA in the absence of chemical substance,yeast gene YGL187C,0.8
same,The level of expressed mRNA in the presence of chemical substance/The level of expressed mRNA in the absence of chemical substance,yeast gene YGL191W,1.6
same,The level of expressed mRNA in the presence of chemical substance/The level of expressed mRNA in the absence of chemical substance,yeast gene YGR008C,3.0
same,The level of expressed mRNA in the presence of chemical substance/The level of expressed mRNA in the absence of chemical substance,yeast gene YGR028W,3.5
same,The level of expressed mRNA in the presence of chemical substance/The level of expressed mRNA in the absence of chemical substance,yeast gene YGR062C,1.0
same,The level of expressed mRNA in the presence of chemical substance/The level of expressed mRNA in the absence of chemical substance,yeast gene YGR076C,1.6
same,The level of expressed mRNA in the presence of chemical substance/The level of expressed mRNA in the absence of chemical substance,yeast gene YGR082W,0.9
same,The level of expressed mRNA in the presence of chemical substance/The level of expressed mRNA in the absence of chemical substance,yeast gene YGR174C,1.6
same,The level of expressed mRNA in the presence of chemical substance/The level of expressed mRNA in the absence of chemical substance,yeast gene YGR244C,1.2
same,The level of expressed mRNA in the presence of chemical substance/The level of expressed mRNA in the absence of chemical substance,yeast gene YHR008C,5.4
same,The level of expressed mRNA in the presence of chemical substance/The level of expressed mRNA in the absence of chemical substance,yeast gene YIL155C,0.7
same,The level of expressed mRNA in the presence of chemical substance/The level of expressed mRNA in the absence of chemical substance,yeast gene YJL096W,1.0
same,The level of expressed mRNA in the presence of chemical substance/The level of expressed mRNA in the absence of chemical substance,yeast gene YJL102W,0.7
same,The level of expressed mRNA in the presence of chemical substance/The level of expressed mRNA in the absence of chemical substance,yeast gene YJL133W,1.0
same,The level of expressed mRNA in the presence of chemical substance/The level of expressed mRNA in the absence of chemical substance,yeast gene YJL166W,1.5
same,The level of expressed mRNA in the presence of chemical substance/The level of expressed mRNA in the absence of chemical substance,yeast gene YJL180C,1.6
same,The level of expressed mRNA in the presence of chemical substance/The level of expressed mRNA in the absence of chemical substance,yeast gene YJR045C,1.9
same,The level of expressed mRNA in the presence of chemical substance/The level of expressed mRNA in the absence of chemical substance,yeast gene YJR077C,1.1
